Experimental data taken from patent publication US20230040770A1, “HETEROCYCLIC COMPOUND AND USE THEREOF” (TAKEDA PHARMACEUTICAL COMPANY LIMITED, priority 2019, published 2023).

The molecules below were run against T1, human orexin type 2 receptor (Homo sapiens, UniProt O43614) (assay: Measurement of orexin type 2 receptor agonist activity (calcium indicator fluorescence, CHO cells forcibly expressing human OX2 receptor)). Settings: compound at 3 μM; 0% = DMSO, 100% = orexin A (human) 10 nM.
T1 construct: expressed in transfected cells
T1 sequence (O43614 1-444): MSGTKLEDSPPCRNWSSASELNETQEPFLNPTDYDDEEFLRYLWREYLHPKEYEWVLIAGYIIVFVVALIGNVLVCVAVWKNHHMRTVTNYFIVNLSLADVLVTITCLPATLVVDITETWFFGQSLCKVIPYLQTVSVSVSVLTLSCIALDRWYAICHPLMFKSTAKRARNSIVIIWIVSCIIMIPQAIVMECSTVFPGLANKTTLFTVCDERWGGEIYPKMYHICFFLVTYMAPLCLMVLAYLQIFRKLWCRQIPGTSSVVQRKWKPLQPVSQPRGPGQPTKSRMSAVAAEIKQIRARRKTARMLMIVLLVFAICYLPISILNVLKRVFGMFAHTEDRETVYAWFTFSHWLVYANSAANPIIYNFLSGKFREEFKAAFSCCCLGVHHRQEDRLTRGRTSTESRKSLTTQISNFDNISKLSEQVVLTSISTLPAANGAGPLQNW
Format: cell-based
Source text: To obtain a cell clone stably expressing human orexin type 2 receptor, human orexin type 2 receptor cDNA was inserted into pcDNA3.1(+) plasmid vector (Invitrogen), and a plasmid DNA for expression of human orexin type 2 receptor (pcDNA3.1(+)/hOX2R) was cloned. The plasmid DNA was introduced into CHO-dhfr cell by an electroporation method, and human orexin type 2 receptor expressing clone cells were obtained by limiting dilution method by using G418 drug resistance as a selection marker.
CHO cells forcibly expressing human OX2 receptor were seeded in each well of 384 well black transparent bottom plate (BD Falcon) at 7,500 cells/well, and cultured for one day in a 5% CO2 incubator at 37° C. After removal of the medium in the cell plate, assay buffer A containing a calcium indicator (HBSS (Thermo Fisher Scientific), 20 mM HEPES (Thermo Fisher Scientific), 0.1% BSA (Sigma-Aldrich), 2.5 μg/mL Fluo-4 AM (DOJINDO Chemical), 0.08% Pluronic F127 (DOJINDO Chemical), 1.25 mM probenecid (DOJINDO Chemical)) was added at 30 μL/well. The plate was stood for 30 min in a 5% CO2 incubator at 37° C., and further stood at room temperature for 30 min. A test compound prepared by diluting with assay buffer B (HBSS, 20 mM HEPES, 0.1% BSA) was added at 10 μL/well, and the fluorescence value was measured by FDSSμCELL (Hamamatsu Photonics K.K.) every one sec for 1 min, and thereafter every two sec for […]. The activity (%) of the test compound was calculated assuming that variation in the fluorescence value when DMSO was added instead of the test compound was 0%, and variation in the fluorescence value when orexin A (human) (PEPTIDE INSTITUTE, INC.) was added at the final concentration of 10 nM was 100%.

Compound	OX2R agonist activity (3 μM, %) [%]
CS(=O)(=O)N[C@@H]1[C@H](Cc2cccc(-c3ccccc3)c2F)N(C(=O)C23CC(C2)C3)CC1(F)F [Example 78, N-{(2S,3R)-1-(bicyclo[1.1.1]pentane-1-carbonyl)-4,4-difluoro-2-[(2-fluoro[1,1′-biphenyl]-3-yl)methyl]pyrrolidin-3-yl}methanesulfonamide]	93
CS(=O)(=O)N[C@@H]1[C@H](Cc2cccc(-c3ccccc3)c2F)N(C(=O)C2CCO2)CC1(F)F (stereo partly drawn) [Example 79, N-[(2S,3R)-4,4-difluoro-2-[(2-fluoro[1,1′-biphenyl]-3-yl)methyl]-1-(oxetane-2-carbonyl)pyrrolidin-3-yl]methanesulfonamide]	102
CS(=O)(=O)N[C@@H]1[C@H](Cc2cccc(-c3cccc(F)c3)c2F)N(C(=O)[C@H]2CCO2)CC1(F)F [Example 81, N-[(2S,3R)-2-[(2,3′-difluoro[1,1′-biphenyl]-3-yl)methyl]-4,4-difluoro-1-((2R)-oxetane-2-carbonyl)pyrrolidin-3-yl]methanesulfonamide]	95
CCS(=O)(=O)N[C@@H]1[C@H](Cc2cccc(-c3cccc(F)c3)c2)N(C(=O)[C@H]2CCCO2)CC1(F)F [Example 88, N-{(2S,3R)-4,4-difluoro-2-[(3′-fluoro[1,1′-biphenyl]-3-yl)methyl]-1-[(2R)-oxolane-2-carbonyl]pyrrolidin-3-yl}ethanesulfonamide]	98
CS(=O)(=O)N[C@@H]1[C@H](Cc2cccc(-c3cc(F)cc(F)c3)c2F)N(C(=O)[C@@H]2CCO2)CC1(F)F [Example 92, N-{(2S,3R)-4,4-difluoro-1-((2S)-oxetane-2-carbonyl)-2-[(2,3′,5′-trifluoro[1,1′-biphenyl]-3-yl)methyl]pyrrolidin-3-yl}methanesulfonamide]	99
CCS(=O)(=O)N[C@@H]1[C@H](Cc2cccc(-c3cccc(F)c3)c2F)N(C(=O)C23CC(C2)C3)CC1(F)F [Example 93, N-{(2S,3R)-1-(bicyclo[1.1.1]pentane-1-carbonyl)-2-[(2,3′-difluoro[1,1′-biphenyl]-3-yl)methyl]-4,4-difluoropyrrolidin-3-yl}ethanesulfonamide]	98
CCS(=O)(=O)N[C@@H]1[C@H](Cc2cccc(-c3cccc(F)c3)c2)N(C(=O)C(C)C)CC1(F)F [Example 97, N-[(2S,3R)-4,4-difluoro-2-[(3′-fluoro[1,1′-biphenyl]-3-yl)methyl]-1-(2-methylpropanoyl)pyrrolidin-3-yl]ethanesulfonamide]	90
CC(C)C(=O)N1CC(F)(F)[C@H](NS(C)(=O)=O)[C@@H]1Cc1cccc(-c2cccc(F)c2)c1F [Example 98, N-[(2S,3R)-2-[(2,3′-difluoro[1,1′-biphenyl]-3-yl)methyl]-4,4-difluoro-1-(2-methylpropanoyl)pyrrolidin-3-yl]methanesulfonamide]	91
CCS(=O)(=O)N[C@@H]1[C@H](Cc2cccc(-c3ccccc3)c2F)N(C(=O)[C@H]2CCCO2)CC1(F)F [Example 105, N-{(2S,3R)-4,4-difluoro-2-[(2-fluoro[1,1′-biphenyl]-3-yl)methyl]-1-[(2R)-oxolane-2-carbonyl]pyrrolidin-3-yl}ethanesulfonamide]	99
CCS(=O)(=O)N[C@@H]1[C@H](Cc2cccc(-c3ccccc3)c2F)N(C(=O)C(C)C)CC1(F)F [Example 106, N-[(2S,3R)-4,4-difluoro-2-[(2-fluoro[1,1′-biphenyl]-3-yl)methyl]-1-(2-methylpropanoyl)pyrrolidin-3-yl]ethanesulfonamide]	97
CCS(=O)(=O)N[C@@H]1[C@H](Cc2cccc(-c3cc(F)cc(F)c3)c2)N(C(=O)C(C)C)CC1(F)F [Example 116, N-[(2S,3R)-2-[(3′,5′-difluoro[1,1′-biphenyl]-3-yl)methyl]-4,4-difluoro-1-(2-methylpropanoyl)pyrrolidin-3-yl]ethanesulfonamide]	86
CS(=O)(=O)N[C@@H]1[C@H](Cc2cccc(-c3cccc(F)c3F)c2F)N(C(=O)[C@H]2CCO2)CC1(F)F [Example 121, N-{(2S,3R)-4,4-difluoro-1-((2R)-oxetane-2-carbonyl)-2-[(2,2′,3′-trifluoro[1,1′-biphenyl]-3-yl)methyl]pyrrolidin-3-yl}methanesulfonamide]	94
CS(=O)(=O)N[C@@H]1[C@H](Cc2cccc(-c3cc(F)ccc3F)c2F)N(C(=O)[C@H]2CCO2)CC1(F)F [Example 122, N-{(2S,3R)-4,4-difluoro-1-((2R)-oxetane-2-carbonyl)-2-[(2,2′,5′-trifluoro[1,1′-biphenyl-]-3-yl)methyl]pyrrolidin-3-yl}methanesulfonamide]	89
O=C(C1CCO1)N1CC(F)(F)[C@H](NS(=O)(=O)C2CC2)[C@@H]1Cc1cccc(-c2ccccc2)c1F (stereo partly drawn) [Example 124, N-[(2S,3R)-4,4-difluoro-2-[(2-fluoro[1,1′-biphenyl]-3-yl)methyl]-1-(oxetane-2-carbonyl)pyrrolidin-3-yl]cyclopropanesulfonamide]	89
O=C(C1CCO1)N1CC(F)(F)[C@H](NS(=O)(=O)C2CC2)[C@@H]1Cc1cccc(-c2cccc(F)c2)c1F (stereo partly drawn) [Example 129, N-[(2S,3R)-2-[(2,3′-difluoro[1,1′-biphenyl]-3-yl)methyl]-4,4-difluoro-1-(oxetane-2-carbonyl)pyrrolidin-3-yl]cyclopropanesulfonamide]	92
CC(C)C(=O)N1CC(F)(F)[C@H](NS(C)(=O)=O)[C@@H]1Cc1cccc(-c2cccc(F)c2F)c1 [Example 131, N-[(2S,3R)-2-[(2′,3′-difluoro[1,1′-biphenyl]-3-yl)methyl]-4,4-difluoro-1-(2-methylpropanoyl)pyrrolidin-3-yl]methanesulfonamide]	94
CS(=O)(=O)N[C@@H]1[C@H](Cc2cccc(-c3cccc(F)c3F)c2F)N(C(=O)[C@@H]2CCO2)CC1(F)F [Example 133, N-{(2S,3R)-4,4-difluoro-1-((2S)-oxetane-2-carbonyl)-2-[(2,2′,3′-trifluoro[1,1′-biphenyl]-3-yl)methyl]pyrrolidin-3-yl}methanesulfonamide]	96
CN(C)C(=O)N1CC(F)(F)[C@H](NS(=O)(=O)N(C)C)[C@@H]1Cc1cccc(-c2ccccc2)c1F [Example 138, (2S,3R)-3-[(dimethylsulfamoyl)amino]-4,4-difluoro-2-[(2-fluoro[1,1′-biphenyl]-3-yl)methyl]-N,N-dimethylpyrrolidine-1-carboxamide]	97
CN(C)S(=O)(=O)N[C@@H]1[C@H](Cc2cccc(-c3ccccc3)c2F)N(C(=O)N2CCC2)CC1(F)F [Example 139, N′-{(2S,3R)-1-(azetidine-1-carbonyl)-4,4-difluoro-2-[(2-fluoro[1,1′-biphenyl]-3-yl)methyl]pyrrolidin-3-yl}-N,N-dimethylsulfuric diamine]	93
CN(C)S(=O)(=O)N[C@@H]1[C@H](Cc2cccc(-c3ccccc3)c2F)N(C(=O)C2(O)CCC2)CC1(F)F [Example 145, N′-[(2S,3R)-4,4-difluoro-2-[(2-fluoro[1,1′-biphenyl]-3-yl)methyl]-1-(1-hydroxycyclobutane-1-carbonyl)pyrrolidin-3-yl]-N,N-dimethylsulfuric diamide]	99
